In experiment [1] the target is IDO1 protein levels in BxPC3 cells (Homo sapiens, UniProt P14902). The experiment can be described thus: IDO1 immunoblotting (degradation). The experiment is classed as cell-based. Set-up: endogenous in cells; host or cells: BxPC3 (DSMZ), IFN-γ stimulated. The following applies: for Max. degradation (%): 24 h incubation, mean ± SD.
The next experiment has as its target T1, recombinant human IDO1 (Homo sapiens, UniProt P14902).
T1 construct: The GST-tag of IDO1 was removed to obtain untagged full-length IDO1l using PreScission protease; GST (N, cleaved yes); made in house; own inference
Put plainly: IDO1 enzymatic assay in vitro. The experiment is classed as biochemical. The following applies: for inhibition at 14 µM / IDO1 activity IC50 [µM] (in vitro assay) / IC50: pre-incubation 37 °C 45 min; for inhibition at 14 µM: mean ± SD; for IDO1 activity IC50 [µM] (in vitro assay) / IC50: determined if inhibition at 14 µM higher than 50%; for in vitro IDO1 inhibition (in words): up to 14 µM, incubated with IDO1 for 45 min.

Experiment [2] concerns Kyn levels in BxPC3 cells (kynurenine generated by IDO1). Put plainly: Cellular Kyn assay (automated Kyn screening assay). The experiment is classed as cell-based. To be noted: for IC50: Homo sapiens, BXPC-3, 48 h, IFN-γ, L-Trp and compounds 48 h, mean ± SD, read-out: IC50 (Kyn assay), reduction of kynurenine levels.

The text below walks through data of publication PMC12811658, “Design, Synthesis, and Structural Evolution of Pseudo‐Natural Product IDO1 Inhibitors and Degraders” (Angewandte Chemie (International Ed. in English), 2025).

Each structure is given as a SMILES string.

T1 sequence (P14902 whole entry): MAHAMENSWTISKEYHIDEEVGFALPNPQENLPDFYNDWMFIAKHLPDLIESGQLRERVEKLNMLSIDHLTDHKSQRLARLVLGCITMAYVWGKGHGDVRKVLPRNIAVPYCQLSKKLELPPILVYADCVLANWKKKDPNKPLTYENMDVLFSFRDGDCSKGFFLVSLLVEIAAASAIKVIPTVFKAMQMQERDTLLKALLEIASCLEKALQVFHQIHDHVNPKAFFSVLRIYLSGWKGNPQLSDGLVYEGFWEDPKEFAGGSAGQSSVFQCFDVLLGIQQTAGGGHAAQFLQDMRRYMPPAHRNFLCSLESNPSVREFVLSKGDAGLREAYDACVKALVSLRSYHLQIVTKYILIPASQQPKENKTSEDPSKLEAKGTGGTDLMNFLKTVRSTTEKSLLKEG
IDO1 protein levels in BxPC3 cells, sequence (P14902 whole entry): as above

The term inhibition denotes how much of the control response was suppressed. In general, IC50 refers to the concentration that inhibits the measured activity by half. For `C#Cc1ccc(NC(=O)OC[C@]23CN(S(=O)(=O)c4ccc(C(C)(C)C)cc4)C[C@H]2C[C@H]2C[C@@H]3C2(C)C)cc1` [43 (iDeg-3), ((3aS,4R,6R,7aS)-2-((4-(tert-butyl)phenyl)sulfonyl)-5,5-dimethyloctahydro-3aH-4,6-methanoisoindol-3a-yl)methyl (4-ethynylphenyl)carbamate], the “Max. degradation (%)” value in experiment [1] (10 nM) is 29 ± 16 (5) %. Also, the “Max. degradation (%)” value in experiment [1] (100 nM) is recorded as 62 ± 10 (5) %. Further, the “Degradation Efficiency (%)” value in experiment [1] (100 nM, BxPC3 cells, heatmap Fig. 3d) was 62%. Also, at recombinant human IDO1, the inhibition at 14 µM is under 25%; the “IDO1 activity IC50 [µM] (in vitro assay)” value is “– (Inactive: >75% Kyn level observed up to a concentration of 14 µM and no IC50 value obtained)”. Besides, in experiment [2], the “fold increase in potency compared to iDeg-2 in Kyn assay” value is recorded as “three‐fold” and the IC50 worked out at 46 ± 21 nM.

Consider `Cc1cc(C(C)(C)C)ccc1S(=O)(=O)N1C[C@H]2C[C@H]3C[C@H](C3(C)C)[C@@]2(COC(=O)Nc2ccc(I)cc2)C1` [79 (iDeg-4), ((3aS,4R,6R,7aS)-2-((4-(tert-butyl)-2-methylphenyl)sulfonyl)-5,5-dimethyloctahydro-3aH-4,6-methanoisoindol-3a-yl)methyl (4-iodophenyl)carbamate], for which the “Max. degradation (%)” value in experiment [1] (10 nM) is 31 ± 6 (3) %; in experiment [1] (100 nM), 65 ± 10 (14) %. Moreover, the inhibition at 14 µM on recombinant human IDO1 was found to be 25 ± 5%. In addition, the half-inhibitory concentration (IC50) on recombinant human IDO1 is over 14 µM; in experiment [2], 25 ± 5 nM. In addition, the “in vitro IDO1 inhibition (in words)” value on recombinant human IDO1 is given as “weak inhibitors”.

A word on the Dmax: it is the largest share of the target that was removed. A higher Dmax goes with a fuller loss of target. With `CC(C)(C(=O)O)c1ccc(S(=O)(=O)N2C[C@H]3C[C@H]4C[C@H](C4(C)C)[C@@]3(COC(=O)Nc3ccc(I)cc3)C2)cc1` [92 (iDeg-5), 2-(4-(((3aS,4R,6R,7aS)-3a-((((4-iodophenyl)carbamoyl)oxy)methyl)-5,5-dimethyloctahydro-2H-4,6-methanoisoindol-2-yl)sulfonyl)phenyl)-2-methylpropanoic acid], the “Max. degradation (%)” value was 23 ± 22 (5) % in experiment [1] (10 nM) and 46 ± 21 (5) % in experiment [1] (100 nM). Moreover, the Dmax at 0.1 µM in experiment [1] (BXPC-3, @100 nM, BxPC3 cells) fell in the range of 36 to 54%. For the same compound, the inhibition at 14 µM on recombinant human IDO1 came out at 66 ± 8%. Also, the IC50 on recombinant human IDO1 came to 0.82 ± 0.14 µM; in experiment [2], 30 ± 3 nM. Further, the “fold increase in potency compared to iDeg-2 in Kyn assay” value in experiment [2] came to 4 fold.

For `CCc1cc(C(C)(C)C)ccc1S(=O)(=O)N1C[C@H]2C[C@H]3C[C@H](C3(C)C)[C@@]2(COC(=O)Nc2ccc(I)cc2)C1` [compound 80, ((3aS,4R,6R,7aS)-2-((4-(tert-butyl)-2-ethylphenyl)sulfonyl)-5,5-dimethyloctahydro-3aH-4,6-methanoisoindol-3a-yl)methyl (4-iodophenyl)carbamate], the “Max. degradation (%)” value in experiment [1] (10 nM) is recorded as 25 ± 10 (3) %. For the same compound, the “Max. degradation (%)” value in experiment [1] (100 nM) is reported as 56 ± 4 (3) %. For the same compound, on recombinant human IDO1, the inhibition at 14 µM was determined as 35 ± 8%, the 50% inhibitory concentration (IC50) was over 14 µM and the “in vitro IDO1 inhibition (in words)” value is “weak inhibitors”. Further, the half-maximal inhibitory concentration (IC50) in experiment [2] is 13 ± 3 nM.

For the compound `CC(C)(C)c1ccc(S(=O)(=O)N2C[C@H]3C[C@H]4C[C@H](C4(C)C)[C@@]3(COC(=O)Nc3ccc(I)cc3)C2)c(C2CC2)c1` [compound 81, ((3aS,4R,6R,7aS)-2-((4-(tert-butyl)-2-cyclopropylphenyl)sulfonyl)-5,5-dimethyloctahydro-3aH-4,6-methanoisoindol-3a-yl)methyl (4-iodophenyl)carbamate], the “Max. degradation (%)” value in experiment [1] (10 nM) is given as 31 ± 18 (3) %. In experiment [1] (100 nM), the “Max. degradation (%)” value is given as 55 ± 4 (3) %. For the same compound, on recombinant human IDO1, the inhibition at 14 µM was determined as 39 ± 1%, the IC50 is over 14 µM and the “in vitro IDO1 inhibition (in words)” value is “weak inhibitors”. Also, the IC50 in experiment [2] amounted to 19 ± 6 nM.

Turning to `COc1cc(C(C)(C)C)ccc1S(=O)(=O)N1C[C@H]2C[C@H]3C[C@H](C3(C)C)[C@@]2(COC(=O)Nc2ccc(I)cc2)C1` [compound 82, ((3aS,4R,6R,7aS)-2-((4-(tert-butyl)-2-methoxyphenyl)sulfonyl)-5,5-dimethyloctahydro-3aH-4,6-methanoisoindol-3a-yl)methyl (4-iodophenyl)carbamate], the “Max. degradation (%)” value in experiment [1] (10 nM) was 14 ± 15 (5) %. Besides, the “Max. degradation (%)” value in experiment [1] (100 nM) is 59 ± 16 (5) %. Besides, on recombinant human IDO1, the inhibition at 14 µM was under 25%; the “IDO1 activity IC50 [µM] (in vitro assay)” value was “– (Inactive: >75% Kyn level observed up to a concentration of 14 µM and no IC50 value obtained)”. Moreover, in experiment [2], the 50% inhibitory concentration (IC50) was 46 ± 15 nM.

Regarding `CC(C)(C)c1ccc(S(=O)(=O)N2C[C@H]3C[C@H]4C[C@H](C4(C)C)[C@@]3(COC(=O)Nc3ccc(I)cc3)C2)c(Br)c1` [compound 83, ((3aS,4R,6R,7aS)-2-((2-bromo-4-(tert-butyl)phenyl)sulfonyl)-5,5-dimethyloctahydro-3aH-4,6-methanoisoindol-3a-yl)methyl (4-iodophenyl)carbamate], the “Max. degradation (%)” value in experiment [1] (10 nM) is listed as 24 ± 15 (3) %. Further, in experiment [1] (100 nM), the “Max. degradation (%)” value is on record as 56 ± 4 (3) %. Moreover, on recombinant human IDO1, the inhibition at 14 µM was under 25%; the “IDO1 activity IC50 [µM] (in vitro assay)” value is “– (Inactive: >75% Kyn level observed up to a concentration of 14 µM and no IC50 value obtained)”. In addition, the 50% inhibitory concentration (IC50) in experiment [2] was 35 ± 6 nM.

As to `CC(C)(C)c1ccc(S(=O)(=O)N2C[C@H]3C[C@H]4C[C@H](C4(C)C)[C@@]3(COC(=O)Nc3ccc(I)cc3)C2)c(I)c1` [compound 84, ((3aS,4R,6R,7aS)-2-((4-(tert-butyl)-2-iodophenyl)sulfonyl)-5,5-dimethyloctahydro-3aH-4,6-methanoisoindol-3a-yl)methyl (4-iodophenyl)carbamate], the “Max. degradation (%)” value in experiment [1] (10 nM) was “inactive”; in experiment [1] (100 nM) it was 55 ± 5 (3) %. Moreover, at recombinant human IDO1, the inhibition at 14 µM was 16 ± 4%. Besides, the “IDO1 activity IC50 [µM] (in vitro assay)” value at recombinant human IDO1 is “– (Inactive: >75% Kyn level observed up to a concentration of 14 µM and no IC50 value obtained)”. Also, the 50% inhibitory concentration (IC50) in experiment [2] came out at 42 ± 15 nM.

Take `CC(C)(C(=O)N1CCOCC1)c1ccc(S(=O)(=O)N2C[C@H]3C[C@H]4C[C@H](C4(C)C)[C@@]3(COC(=O)Nc3ccc(I)cc3)C2)cc1` [compound 86, ((3aS,4R,6R,7aS)-5,5-dimethyl-2-((4-(2-methyl-1-morpholino-1-oxopropan-2-yl)phenyl)sulfonyl)octahydro-3aH-4,6-methanoisoindol-3a-yl)methyl (4-iodophenyl)carbamate]: the IC50 in experiment [2] came out at 7300 ± 1400 nM.

As to `CN(C)C(=O)C(C)(C)c1ccc(S(=O)(=O)N2C[C@H]3C[C@H]4C[C@H](C4(C)C)[C@@]3(COC(=O)Nc3ccc(I)cc3)C2)cc1` [compound 87, ((3aS,4R,6R,7aS)-2-((4-(1-(dimethylamino)-2-methyl-1-oxopropan-2-yl)phenyl)sulfonyl)-5,5-dimethyloctahydro-3aH-4,6-methanoisoindol-3a-yl)methyl (4-iodophenyl)carbamate], the concentration for half-maximal inhibition (IC50) in experiment [2] came to 850 ± 270 nM.

For the compound `CN(C)CC(C)(C)c1ccc(S(=O)(=O)N2C[C@H]3C[C@H]4C[C@H](C4(C)C)[C@@]3(COC(=O)Nc3ccc(I)cc3)C2)cc1` [compound 88, ((3aS,4R,6R,7aS)-2-((4-(1-(dimethylamino)-2-methylpropan-2-yl)phenyl)sulfonyl)-5,5-dimethyloctahydro-3aH-4,6-methanoisoindol-3a-yl)methyl (4-iodophenyl)carbamate], the concentration for half-maximal inhibition (IC50) in experiment [2] was determined as 2500 ± 100 nM.

As for `CCOC(=O)C(C)(C)c1ccc(S(=O)(=O)N2C[C@H]3C[C@H]4C[C@H](C4(C)C)[C@@]3(COC(=O)Nc3ccc(I)cc3)C2)cc1` [compound 89, Ethyl 2-(4-(((3aS,4R,6R,7aS)-3a-((((4-iodophenyl)carbamoyl)oxy)methyl)-5,5-dimethyloctahydro-2H-4,6-methanoisoindol-2-yl)sulfonyl)phenyl)-2-methylpropanoate], in experiment [2], the half-maximal inhibitory concentration (IC50) was 250 ± 80 nM.

For the compound `COC(=O)CC(C)(C)c1ccc(S(=O)(=O)N2C[C@H]3C[C@H]4C[C@H](C4(C)C)[C@@]3(COC(=O)Nc3ccc(I)cc3)C2)cc1` [compound 90, Methyl 3-(4-(((3aS,4R,6R,7aS)-3a-((((4-iodophenyl)carbamoyl)oxy)methyl)-5,5-dimethyloctahydro-2H-4,6-methanoisoindol-2-yl)sulfonyl)phenyl)-3-methylbutanoate], in experiment [2], the IC50 turned out to be 32 ± 11 nM.

Take `COC(=O)C(C)(C)c1ccc(S(=O)(=O)N2C[C@H]3C[C@H]4C[C@H](C4(C)C)[C@@]3(COC(=O)Nc3ccc(I)cc3)C2)c(OC)c1` [compound 93, Methyl 2-(4-(((3aS,4R,6R,7aS)-3a-((((4-iodophenyl)carbamoyl)oxy)methyl)-5,5-dimethyloctahydro-2H-4,6-methanoisoindol-2-yl)sulfonyl)-3-methoxyphenyl)-2-methylpropanoate]: at recombinant human IDO1, the inhibition at 14 µM is under 25%; the “IDO1 activity IC50 [µM] (in vitro assay)” value was “– (Inactive: >75% Kyn level observed up to a concentration of 14 µM and no IC50 value obtained)”. The IC50 in experiment [2] worked out at 73 ± 41 nM.

For the compound `COC(=O)C(C)(C)c1ccc(S(=O)(=O)N2C[C@H]3C[C@H]4C[C@H](C4(C)C)[C@@]3(COC(=O)Nc3ccc(I)cc3)C2)c(Cl)c1` [compound 94, Methyl 2-(3-chloro-4-(((3aS,4R,6R,7aS)-3a-((((4-iodophenyl)carbamoyl)oxy)methyl)-5,5-dimethyloctahydro-2H-4,6-methanoisoindol-2-yl)sulfonyl)phenyl)-2-methylpropanoate], on recombinant human IDO1, the inhibition at 14 µM was under 25%; the “IDO1 activity IC50 [µM] (in vitro assay)” value was “– (Inactive: >75% Kyn level observed up to a concentration of 14 µM and no IC50 value obtained)”. Moreover, the concentration for half-maximal inhibition (IC50) in experiment [2] came out at 43 ± 24 nM.
